In patent US8722930B2, “Protease inhibitors” (Orion Corporation, priority 2009, dated 2014):
pEC50, pIC50: −log10 of the molar value. Where two headings read alike, the source gives them in different places.

Columns and labels:
[1] = system: DU145 cells; assay: Soft agar colony formation assay; type: cell-based; conditions: Homo sapiens, DU-145, 504 h, about three weeks, read-out: EC50 for inhibition of soft agar colony formation
Description: Soft agar colony formation assays were performed to measure the long-term survival and anchorage-independent growth capacity of tumor cells. DU145 cells were seeded in 0.7% nutrient agar with the test compound on an underlay of 1.4% nutrient agar in a six well plate. On the day following cell seeding, liquid cell culture medium containing the compound was added to the well to prevent the agar from drying out and was changed regularly till the completion of the experiment. The cells were allowed to form colonies for a period of about three weeks following which the colonies were stained with 0.005% solution of crystal violet in 25% methanol. The colonies were counted under a dissecting microscope.

[2] = molecular target: T1, thrombin (Homo sapiens, UniProt P00734); assay: Thrombin enzymatic assay (selectivity screening); type: biochemical
T1 construct: uPA, Factor Xa, thrombin, plasmin and trypsin (Sigma, USA); purchased Sigma, USA
Description: (§1) Purified recombinant matriptase was used in a fluorescence-based screening assay using Gln-Ala-Arg peptide as a substrate. In this assay the cleavage of AMC from Boc-Gln-Ala-Arg-7-amido-4 methylcoumarin hydrochloride (Boc-Gln-Ala-Arg-AMC) (Sigma, USA) was monitored by measuring the increase in fluorescence intensity of AMC released upon proteolytic cleavage at 480 nm (kex=360 nm). Similarly, enzymatic assays in fluorimetric or colorimetric format for uPA, Factor Xa, thrombin, plasmin and trypsin (Sigma, USA) were established using substrates pyroGlu-Gly-Arg-pNA.HCl, Boc-Gln-Ala-Arg-AMC, CH3OCO-D-CHA-Gly-Arg-PNA.AcoH, Pyro Glu-Phe-Lys—pNA.HCl and Boc-Gln-Ala-Arg-AMC, respectively.

[3] = molecular target: T2, plasmin (Homo sapiens, UniProt P00747); assay: Plasmin enzymatic assay (selectivity screening); type: biochemical
T2 construct: uPA, Factor Xa, thrombin, plasmin and trypsin (Sigma, USA); purchased Sigma, USA
T2 sequence (P00747 581-810 limits assumed, species assumed): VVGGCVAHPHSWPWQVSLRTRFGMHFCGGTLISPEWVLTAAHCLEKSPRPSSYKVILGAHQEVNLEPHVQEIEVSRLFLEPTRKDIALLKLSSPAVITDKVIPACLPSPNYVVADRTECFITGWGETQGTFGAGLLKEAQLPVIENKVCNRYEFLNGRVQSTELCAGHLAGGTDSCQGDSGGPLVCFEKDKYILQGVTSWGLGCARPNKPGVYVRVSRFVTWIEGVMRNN
T2 sequence (P00747 97-580 partner limits assumed, species assumed): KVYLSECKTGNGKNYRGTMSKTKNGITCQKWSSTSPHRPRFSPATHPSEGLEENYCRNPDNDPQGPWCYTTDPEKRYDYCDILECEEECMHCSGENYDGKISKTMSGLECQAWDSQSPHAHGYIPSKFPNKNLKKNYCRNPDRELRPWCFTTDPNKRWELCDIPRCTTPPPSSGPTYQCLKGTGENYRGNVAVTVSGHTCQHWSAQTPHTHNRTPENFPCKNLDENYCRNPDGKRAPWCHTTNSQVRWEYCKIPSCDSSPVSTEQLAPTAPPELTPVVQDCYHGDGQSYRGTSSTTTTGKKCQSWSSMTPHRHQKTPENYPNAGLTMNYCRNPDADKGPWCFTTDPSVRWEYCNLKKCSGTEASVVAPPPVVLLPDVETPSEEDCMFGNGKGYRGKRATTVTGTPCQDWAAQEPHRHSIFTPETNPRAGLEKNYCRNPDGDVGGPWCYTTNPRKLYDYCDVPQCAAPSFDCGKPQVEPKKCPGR
Description: as §1

[4] = molecular target: T3, Purified recombinant matriptase (Homo sapiens, UniProt Q9Y5Y6); assay: Matriptase fluorescence-based enzymatic assay (Boc-Gln-Ala-Arg-AMC cleavage); type: biochemical
T3 sequence (Q9Y5Y6 1-855): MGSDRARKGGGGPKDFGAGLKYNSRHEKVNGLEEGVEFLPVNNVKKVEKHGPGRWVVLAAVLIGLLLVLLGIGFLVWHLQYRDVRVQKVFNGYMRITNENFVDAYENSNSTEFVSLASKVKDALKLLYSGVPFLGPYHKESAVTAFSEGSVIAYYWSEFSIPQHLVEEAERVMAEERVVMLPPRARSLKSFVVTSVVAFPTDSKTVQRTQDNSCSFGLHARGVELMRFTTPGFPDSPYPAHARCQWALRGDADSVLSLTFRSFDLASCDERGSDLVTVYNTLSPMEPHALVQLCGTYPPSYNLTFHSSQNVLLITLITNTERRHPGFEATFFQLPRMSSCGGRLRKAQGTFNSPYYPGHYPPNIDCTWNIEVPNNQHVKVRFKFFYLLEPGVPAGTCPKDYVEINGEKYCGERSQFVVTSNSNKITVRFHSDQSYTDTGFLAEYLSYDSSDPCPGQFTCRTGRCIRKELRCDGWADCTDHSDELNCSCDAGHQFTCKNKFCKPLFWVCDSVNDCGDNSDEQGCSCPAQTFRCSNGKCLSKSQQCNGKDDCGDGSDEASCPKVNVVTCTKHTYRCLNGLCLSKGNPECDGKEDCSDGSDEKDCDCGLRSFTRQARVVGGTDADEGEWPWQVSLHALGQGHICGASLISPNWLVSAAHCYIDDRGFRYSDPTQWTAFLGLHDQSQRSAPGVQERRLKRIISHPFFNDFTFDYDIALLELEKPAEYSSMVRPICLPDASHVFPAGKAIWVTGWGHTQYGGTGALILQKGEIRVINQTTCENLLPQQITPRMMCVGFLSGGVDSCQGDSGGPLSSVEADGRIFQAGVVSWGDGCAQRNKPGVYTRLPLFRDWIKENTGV
Description: as §1

[5] = molecular target: T4, uPA (Homo sapiens, UniProt P00749); assay: uPA enzymatic assay (selectivity screening); type: biochemical
T4 construct: purchased Sigma, USA
Description: as §1

[6] = molecular target: T5, Factor Xa (Homo sapiens, UniProt P00742); assay: Factor Xa enzymatic assay (selectivity screening); type: biochemical
T5 construct: uPA, Factor Xa, thrombin, plasmin and trypsin (Sigma, USA); purchased Sigma, USA
T5 sequence (P00742 235-488 limits assumed): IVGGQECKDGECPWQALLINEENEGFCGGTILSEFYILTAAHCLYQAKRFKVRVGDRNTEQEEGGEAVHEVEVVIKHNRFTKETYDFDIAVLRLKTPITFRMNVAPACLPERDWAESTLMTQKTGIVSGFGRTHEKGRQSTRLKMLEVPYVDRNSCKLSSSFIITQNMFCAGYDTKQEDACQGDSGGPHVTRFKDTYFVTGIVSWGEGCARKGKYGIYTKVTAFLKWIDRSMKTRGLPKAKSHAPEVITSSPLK
T5 sequence (P00742 41-179 partner limits assumed): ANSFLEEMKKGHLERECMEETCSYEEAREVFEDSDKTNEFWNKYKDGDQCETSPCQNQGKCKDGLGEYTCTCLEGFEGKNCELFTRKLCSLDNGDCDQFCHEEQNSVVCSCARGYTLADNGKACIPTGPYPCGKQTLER
Description: as §1

[7] = system: trypsin; assay: Trypsin enzymatic assay (selectivity screening); type: biochemical; conditions: % Inhibition at 5 μM
Description: as §1

[8] = Maximum tolerated dose (MTD) study; type: in vivo; conditions: 14 days, male athymic mice
Description: An MTD study was performed for the compound of Example 27. […] The compound was administered at 1, 3, 10 and 30 mg/kg once daily in male athymic mice via subcutaneous route in 5 mice each. […]

[9] = system: PC3 cells; assay: PC3 xenograft model; type: in vivo; conditions: for Tumor growth inhibition (%): PC3 model, 21 days
Description: (§2) In order to determine the in vivo efficacy, xenograft models were established by injecting 5×10^6 DU145 cells with matrigel or 5×10^6 PC3 cells without matrigel subcutaneously. Once the tumors reached palpable size (˜80 mm3), compound of Example 27 was administered in a vehicle comprising of 2% ethanol, 10% hydroxyl cyclodextrin in 0.9% saline. The compound of Example 27 was dosed subcutaneously to animals with DU145 tumors at 1.5, 5 and 15 mg/kg for 15 days. In the PC3 xenograft study, compound of Example 27 was administered at 0.5, 1.5, 5.0 and 15.0 mg/kg daily.

[10] = system: DU145 cells; assay: Cytotoxicity, Calcein AM assay, DU145; type: cell-based; conditions: Homo sapiens, DU-145, 96 h, four days of incubation, read-out: Cell survival at 10 μM (%)
Description: Cytotoxicity of the compounds was tested in cell lines or primary cells using Calcein AM assay. This assay measures cell viability by quantitation of cleaved fluorescent product of a cell permeable substrate that is retained in the cytoplasm of cells with uncompromised cytoplasmic membrane integrity. The cells were seeded into 96-well plate and allowed to adhere for a day followed by addition of compound at several different concentrations. After four days of incubation with the compound, media was removed from the cells followed by addition of PBS and addition of Calcein AM reagent at 1 μM final concentration. The cells were then allowed to incubate at 37° C. for half an hour followed by reading on the fluorimeter. Percent viability was calculated based on fluorescence value obtained at 485/520 nm with cut off at 495 nm.

[11] = system: DU145 cells; assay: Migration assay in transwell chambers; type: cell-based; conditions: Homo sapiens, DU-145, 24 hours
Description: Migration assays were performed to determine the effect of matriptase inhibitors on cell motility. Cells were seeded with 10 μM test compound into transwell chambers and allowed to migrate for 24 hours using a combination of 10% FBS and 5 μg/ml fibronectin as chemoattractant.

[12] = system: DU145 cells; assay: Cell invasion assay (matrigel transwell); type: cell-based; conditions: Homo sapiens, DU-145, 48 hours
Description: Cell invasion assays were done for quantitating the degree to which invasive cells penetrate a barrier essentially as in migration assay but with the use of matrigel consisting of basement membrane components in the transwell inserts and incubating for 48 hours. The barrier used was matrigel. This was followed by fixing and staining of the transwell insert with 0.5% crystal violet in 25% methanol in order to visualize cells migrated.

[13] = system: DU145 tumors; assay: DU145 xenograft model; type: in vivo; conditions: for Tumor growth inhibition (%): DU145 model, 15 days
Description: as §2

[14] = 1, 3, 10 and 30 mg/kg once daily subcutaneous
[15] = Table 1, read-out: Matriptase Inhibition IC50
[16] = Table 2, read-out: Matriptase IC50

SMILES	pEC50 [1]	inhibition at 5 µM [2]	inhibition at 5 µM [3]	inhibition at 5 µM [5]	inhibition at 5 µM [6]	Trypsin Inhibition (%) [7]	viability at 10 µM [10]	inhibition at 10 µM [11]	inhibition at 10 µM [12]	pIC50 [4, 15]	pIC50 [4, 16]	also measured
N=C(N)c1ccc(Oc2cc(C(=O)NC3CCC(N)CC3)cc(Oc3ccc(C(=N)N)cc3)n2)cc1 (centres unmarked) [Example 13, N-(4-Amino-cyclohexyl)-2,6-bis-(4-carbamimidoyl-phenoxy)-isonicotinamide]	6.30	28%	33%	13%	84%	92%						pIC50 [4]: 7.70
[H]/N=C(\N)c1ccc(Oc2cc(Oc3ccc(/C(N)=N/[H])cc3)cc(C(=O)NC3CCC(N)CC3)c2)cc1 (centres unmarked) [Example 27, N-(4-Amino-cyclohexyl)-3,5-bis-(4-carbamimidoyl-phenoxy)-benzamide]	6.70	41%	33%	14%	83%	61%	100%	88%	79%	7.77	7.77	Body weight reduction [8, 14]: less than 2%; Clinical signs [8, 14]: no gross changes in clinical signs; Mortality [8, 14]: did not show any mortality; Tolerability ([8]; doses up to 30 mg/kg once daily subcutaneous): well tolerated; Tumor growth inhibition (%) ([9]; 0.5 mg/kg daily): 14%; Tumor growth inhibition (%) ([9]; 1.5 mg/kg daily): 44%; Tumor growth inhibition (%) ([9]; 5 mg/kg daily): 65%; Tumor growth inhibition (%) ([9]; 15 mg/kg daily): 62%; Inhibition of tumor growth (in words) ([9]; PC3 xenograft study): significant and dose-dependent inhibition of tumor growth; Tumor growth inhibition (%) ([13]; 1.5 mg/kg subcutaneously): 61.2%; Tumor growth inhibition (%) ([13]; 5 mg/kg subcutaneously): 84.5%; Tumor growth inhibition (%) ([13]; 15 mg/kg subcutaneously): 75%; Reduction in tumor volume (in words) ([13]; DU145 xenograft study): significant reduction in tumor volume
N=C(N)c1ccc(Oc2cc(OCc3cccc(CN)c3)cc(C(=O)NC3CCC(N)CC3)c2)cc1 (centres unmarked) [Example 47, N-(4-Aminocyclohexyl)-3-(3-aminomethylbenzyloxy)-5-(4-carbamimidoylphenoxy)benzamide]	6.05	3%	18%	-1%	71%		100%	39%	63%	7.42	7.42	
N=C(N)c1ccc(COc2cc(Oc3ccc(C(=N)N)cc3)cc(C(=O)N3CCC(CCN)CC3)c2)cc1 [Example 58, 2-{1-[3-(4-carbamimidoyl-benzyloxy)-5-(4-carbamimidoyl-phenoxy)benzoyl]-piperidin-4-yl}ethylamine]	7.00	70%	42%	7%	73%		100%	63%	91%	7.46	7.46	
N=C(N)c1ccc(Oc2cc(OCc3ccc(Br)cc3)cc(C(=O)NC3CCC(N)CC3)c2)cc1 (centres unmarked) [Example 51, N-(4-Aminocyclohexyl)-3-(4-bromobenzyloxy)-5-(4-carbamimidoylphenoxy)benzamide]	6.15	41%	25%	23%	52%		93%	-4%	61%	6.42	6.91	
N=C(N)c1ccc(Oc2cc(NC(=O)[C@H]3CC[C@H](N)CC3)cc(Oc3ccc(C(=N)N)cc3)c2)cc1 [Example 108, Trans-4-amino-cyclohexanecarboxylic Acid[3,5-bis-(4-carbamimidoyl-phenoxy)-phenyl]-amide]						76%				8.40		Thrombin Inhibition (%) ([2]; % Inhibition at 5 μM): 49%; Plasmin Inhibition (%) ([3]; % Inhibition at 5 μM): 61%; uPA Inhibition (%) ([5]; % Inhibition at 5 μM): 23%; Factor Xa Inhibition (%) ([6]; % Inhibition at 5 μM): 81%
Cc1cc(Oc2cc(Oc3ccc(C(=N)N)cc3)cc(C(=O)NC3CCC(N)CC3)c2)ccc1C(=N)N (centres unmarked) [Example 74, N-(4-Aminocyclohexyl)-3-(4-carbamimidoyl-3-methylphenoxy)-5-(4-carbamimidoylphenoxy)benzamide]		33%	10%	11%	86%	28%	95%	18%	45%	7.88	7.89	
